{"source": "patent US6383521B1", "about": "“Wondonin A and process for preparing the same” (Korea Ocean Research and Development, priority 2000, dated 2002)", "key": {"[1]": {"assay": "Physicochemical data of Wondonin A", "text": "The spectrophotomeric data of Wondonin A are as follows: […]"}, "[2]": {"test_system": "Human umbilical vascular endothelial cells (HUVEC)", "assay": "Invasion assay of HUVEC through Matrigel/Type IV collagen coated filter", "assay_type": "cell-based", "conditions": "10 μg/ml Wondonin A medium, bFGF, 18 hours", "experimental": "Powdered medium 199 (M 199, Sigma Chemical Co., U.S.A.) and 2.2 g (per liter) of sodium bicarbonate was dissolved in double distilled water, pH of the medium was adjusted to 7.2 with HCl, and followed by sterile filtration on a […] Millipore filter. Then, a medium was finally prepared by supplementing, just before use, with 20% (w/v) FBS (fetal bovine serum ), 1% (w/v) Penicillin-Streptomycin (P-S), 3 ng/ml bFGF (basic fibroblast growth factor, a growth factor for angiogenesis) and 100 μg/ml heparin. Human umbilical vascular endothelial cells (“HUVEC”) purchased from ATCC (American Type Culture Collection) were seeded to 6 ml of the medium thus prepared in a T25 flask (25 cm^2) and grown to form a monolayer in an incubator at 37° C. under an environment of 5% (v/v) CO2 and saturated humidity, and then subcultured in a medium containing 0.05% (w/v) Trypsin-EDTA.\nFor invasion assay, lower surface of the polycarbonate filter (pore size: 8 μm) equipped in an insert chamber was coated with 5 μg of Type IV collagen and upper surface of the filter was coated with 25 μg of Matrigel (Collaborative Research, Inc., Waltham, Mass., U.S.A.). […] After staining of the fixed cells with haematoxillin and eosin, Matrigel was detached from the filter and HUVEC cells which have passed through the filter were counted. […]"}, "[3]": {"test_system": "vascular endothelial cells", "assay": "Viability of vascular endothelial cells (Trypan Blue)", "assay_type": "cell-based, Human", "conditions": "48 hour incubation, medium without FBS", "experimental": "Vascular endothelial cells grown on Example 3 were placed onto a 24-well plate with 5×10^4 cells/well starting cell number in 1 ml (per well) of the same medium as in Example 3 except for containing 10% (v/v) FBS, and incubated at 37° C. under an environment of 5% (v/v) CO2 for 24 hours to the level of 80% cell confluency. Then, cells were rinsed with 1 ml of PBS and 1 ml of the same medium without FBS was added and then Wondonin A was added to reach the concentrations of […], respectively. After 48 hour incubation, medium was removed and cells were harvested by trypsinization. Cells were stained in a medium containing 0.4% (w/v) Trypan Blue at room temperature and then counted with haemacytometer. The cell viability was assessed based on total cell number and stained cell number (see: Table 1)."}, "[4]": {"test_system": "chick embryo chorioallantoic membrane", "assay": "Chick embryo chorioallantoic membrane assay", "assay_type": "in vivo", "conditions": "ratio of embryos with avascular zone to total embryos; cover slip on CAM, 2 days incubation", "experimental": "On day 3.5, a part of egg shell was cracked gently, and on day 4.5, a cover slip containing Wondonin A (prepared by drying […] Wondonin A in methanol on a cover slip) or a control cover slip (prepared by drying 2 μl of methanol on a cover slip) was placed on the chorioallantoic membrane (CAM) through the crack and then the crack was sealed. After incubation for 2 days, 10% fat emulsion was injected to CAM, which was examined under a microscope. The embryos with a clear avascular zone (inhibition of angiogenesis) were counted and inhibitory effect of Wondonin A on angiogenesis was evaluated by calculating the ratio of the number of embryo with avascular zone to the total number of embryo tested (see: Table 2)."}}}
{"smiles": "CN(C)CCc1cn(C(c2ccc(O)c(O)c2)C2Oc3ccc(/C=C/OS(=O)(=O)[O-])cc3O2)cn1.[Na+]", "note": "(stereo not drawn) [Wondonin A]", "values": [{"measurement": "solubility in polar organic solvents", "setting": "[1]; methanol and dimethylsulfoxide", "result": "highly soluble"}, {"measurement": "stability", "setting": "[1]; pale-yellow semi-solid at room temperature", "result": "stable"}, {"measurement": "reduction in a cell number passed through the filter compared to the control group", "setting": "[2]", "result": 66, "unit": "%"}, {"measurement": "Viability (%)", "setting": "[3]; Wondonin A 1 μg/ml", "result": 98, "unit": "%"}, {"measurement": "Viability (%)", "setting": "[3]; Wondonin A 10 μg/ml", "result": 97, "unit": "%"}, {"measurement": "Inhibition of angiogenesis (%)", "setting": "[4]", "result": 89, "unit": "%"}]}
